As usually defined, the IC50 is the midpoint of a concentration-inhibition curve.

The structures appear in SMILES notation.

The first experiment has as its system human non-small cell lung cancer cell line A549. As to the kind of experiment: In vitro cytotoxicity test of released camptothecin analogs (Luminescent Cell Viability Assay). It counts as cell-based. As to conditions: A549, 120 h, read-out: IC50 (A549, nM). The procedure:
Stable transfection of high expression Her2, high expression SK-BR-3 and BT-474 human breast cancer cells, NCI-N87 human gastric cancer cells and human non-small cell lung cancer cell line A549 were selected as the cell lines for in vitro activity detection in this experiment, and the killing dose and effect of different antibody coupled drugs on cells were observed. Preliminary selection of plate density for each cell type: 2×10^3 cells/well, followed by cytotoxicity assay after 16-24 h; Next, the antibody coupled drug prepared in Example 2 was tested with a final concentration set at 5000 nM as the starting concentration, and a series of 10 concentrations (4-10 fold dilution) were designed for 5000-0.006 nM. […] The IC50 was calculated after reading the fluorescence data.
The linkers in the present invention are all cleavable linkers. Therefore, the released camptothecin analogs were first subjected to in vitro cytotoxic activity testing, and the results are shown in the table below.
Turning to `CC[C@@]1(O)C(=O)OCc2c1cc1n(c2=O)Cc2c-1nc1cc(F)c(NC(=O)CO)c3c1c2CCC3` [Compound A1-FD], the IC50 came to 69.1 nM. On the same count and under the same terms, next, `CC[C@@]1(O)C(=O)OCc2c1cc1n(c2=O)Cc2c-1nc1cc(F)c(C)c3c1c2[C@@H](NC(=O)CO)CC3` [Dxd, reference compound]: 45.1 nM.

The experiment is the same for the next values; noted with them: A549 cells, 120 hours, chemiluminescence cell viability, read-out: IC50 (A549).
For `CC[C@@]1(O)C(=O)OCc2c1cc1n(c2=O)Cc2c-1nc1cc(F)c(NC(=O)C(O)C3CC3)c3c1c2CCC3` (stereo partly shown) [Compound A3-FD], the IC50 was 5.5 nM. The same measure, in the same setting: next, `CC[C@@]1(O)C(=O)OCc2c1cc1n(c2=O)Cc2c-1nc1cc(F)c(NC(=O)C(C)O)c3c1c2CCC3` (stereo partly shown) [Compound A2-FD]: 0.53 nM; `CC[C@@]1(O)C(=O)OCc2c1cc1n(c2=O)Cc2c-1nc1cc(F)c(NC(=O)C3CC3O)c3c1c2CCC3` (stereo partly shown) [Compound A9-FD]: 25.2 nM; `CC[C@@]1(O)C(=O)OCc2c1cc1n(c2=O)Cc2c-1nc1cc(F)c(NC(=O)C3CC(O)C3)c3c1c2CCC3` (stereo partly shown) [Compound A11-FD]: 2.1 nM. Regarding `CC[C@@]1(O)C(=O)OCc2c1cc1n(c2=O)Cc2c-1nc1ccc(NC(=O)CO)c3c1c2CCC3` [Compound A16-FD], the IC50 worked out at 79.5 nM.

Values taken from patent publication US20260014264A1, “SPECIFIC TOPOISOMERASE INHIBITOR, USE AS ANTIBODY DRUG CONJUGATE, AND PREPARATION METHOD THEREFOR” (BIOBRICS LIFE SCIENCE (NANTONG) CO., LTD., priority 2022, published 2026).
